Consider 13 molecules from patent US6559140B2 (Abbott Laboratories, priority 2000, dated 2003).

H3 receptor, sequence (Q9QYN8 1-397 isoform Q9QYN8-3): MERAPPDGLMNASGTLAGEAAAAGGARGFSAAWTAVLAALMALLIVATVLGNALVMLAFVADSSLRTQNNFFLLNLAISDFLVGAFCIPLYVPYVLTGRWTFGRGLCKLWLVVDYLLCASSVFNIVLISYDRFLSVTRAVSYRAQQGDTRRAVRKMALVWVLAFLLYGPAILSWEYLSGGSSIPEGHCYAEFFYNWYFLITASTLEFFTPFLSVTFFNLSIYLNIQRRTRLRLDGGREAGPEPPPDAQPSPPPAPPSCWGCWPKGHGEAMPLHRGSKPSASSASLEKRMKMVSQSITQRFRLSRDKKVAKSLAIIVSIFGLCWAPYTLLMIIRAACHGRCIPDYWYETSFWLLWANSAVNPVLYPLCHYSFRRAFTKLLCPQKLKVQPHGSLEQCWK

The target in this assay is H3 receptor (Rattus norvegicus, UniProt Q9QYN8). In words: H3 receptor binding, (3H)-N-α-methylhistamine displacement in rat cortical membranes. Particulars: male Sprague-Dawley rat brain cortical membranes, 30 minutes at 25° C., Cheng-Prusoff, geometric mean values of 2-10 separate experiments. On the procedure:
Briefly, male Sprague-Dawley rat brain cortices were homogenized (1 g tissue/10 mL buffer) in 50 mM Tris-HCl/5 mM EDTA containing protease inhibitor cocktail (Calbiochem) using a polytron set at 20,500 rpm. Homogenates were centrifuged for 20 minutes at 40,000×g. The supernatant was decanted, and pellets were weighed. The pellet was resuspended by polytron homogenization in 40 mL 50 mM Tris-HCl/5 mM EDTA with protease inhibitors and centrifuged for 20 minutes at 40,000×g. […] Test compounds were added to the incubation mixtures prior to initiating the incubation assay by addition of the membranes. Thioperamide (3 μM) was used to determine nonspecific binding. Binding incubations were conducted for 30 minutes at 25° C. and terminated by addition of 2 mL of ice cold 50 mM Tris-HCl (H 7.7) and filtration through 0.3% polyethylenimine-soaked Unifilter plates (Packard). These filters were washed 4 additional times with 2 mL of ice-cold 50 mM Tris-HCl and dried for 1 hour. Radioactivity was determined using liquid scintillation counting techniques. Results were analyzed by Hill transformation and Ki values were determined using the Cheng-Prusoff equation.
Molecule `N#Cc1ccc(-c2ccc(OCCN3CCN(C(=O)[C@@H]4CCCN4)CC3)cc2)cc1` [Example 140, 4′-(2-(4-((2S)-pyrrolidinylcarbonyl)-1-piperazinyl)ethoxy)(1,1′-biphenyl)-4-carbonitrile] had a Ki of 818 nM.

`C[C@@H](N)C(=O)N1CCN(CCCOc2ccc(-c3ccc(C#N)cc3)cc2)CC1` [Example 100] displayed a Ki of 12.4 nM.

As to `C[C@@H](NC(=O)[C@H]1CCCN1)C(=O)N1CCN(CCCOc2ccc(C(=O)C3CC3)cc2)CC1` [Example 129, (2R)-N-((1R)-2-(4-(3-(4-(cyclopropylcarbonyl)phenoxy)propyl)-1-piperazinyl)-1-methyl-2-oxoethyl)-2-pyrrolidinecarboxamide], the Ki came out at 0.425 nM.

Take `Cc1cc(C(=O)NCCC(=O)N2CCN(CCCOc3ccc(-c4noc(-c5ccccc5)n4)c(F)c3)CC2)c(C)o1` [Example 157, N-[3-(4-{3-[3-fluoro-4-(5-phenyl-1,2,4-oxadiazol-3-yl)phenoxy]propyl}-1-piperazinyl)-3-oxopropyl]-2,5-dimethyl-3-furamide]: affinity was put at a Ki of 46.1 nM.

As for `CC(C)CCc1nc(-c2ccc(OCCCN3CCCN(C(=O)[C@@H](C)NC(=O)c4ccco4)CC3)cc2F)no1` [Example 142, N-[(1R)-2-(4-{3-[3-fluoro-4-(5-isopentyl-1,2,4-oxadiazol-3-yl)phenoxy]propyl}-1,4-diazepan-1-yl)-1-methyl-2-oxoethyl]-2-furamide], the Ki came to 0.72 nM.

`O=C(NCCC(=O)N1CCN(CCCOc2ccc(-c3noc(-c4ccccc4)n3)c(F)c2)CC1)c1ccsc1` [Example 154, N-[3-(4-{3-[3-fluoro-4-(5-phenyl-1,2,4-oxadiazol-3-yl)phenoxy]propyl}-1-piperazinyl)-3-oxopropyl]-3-thiophenecarboxamide] had a Ki of 25 nM.

Molecule `C[C@@H](NC(=O)c1cccs1)C(=O)N1CCN(CCCOc2ccc(-c3noc(-c4cc(Cl)cc(Cl)c4)n3)c(F)c2)CC1` [Example 189, N-{(1R)-2-[4-(3-{4-[5-(3,5-dichlorophenyl)-1,2,4-oxadiazol-3-yl]-3-fluorophenoxy}propyl)-1-piperazinyl]-1-methyl-2-oxoethyl}-2-thiophenecarboxamide] displayed an inhibitory constant (Ki) of 51.3 nM.

Molecule `C[C@@H](NC(=O)c1ccc2c(c1)OCO2)C(=O)N1CCN(CCCOc2ccc(-c3noc(CC4CCCC4)n3)c(F)c2)CC1` [Example 183] had a Ki of 2.72 nM.

The molecule `C[C@@H](NC(=O)CC(C)(C)C)C(=O)N1CCN(CCCOc2ccc(-c3noc(CC4CCCC4)n3)c(F)c2)CC1` [Example 171, N-{(1R)-2-[4-(3-{4-[5-(cyclopentylmethyl)-1,2,4-oxadiazol-3-yl]-3-fluorophenoxy}propyl)-1-piperazinyl]-1-1-methyl-2-oxoethyl}-3,3-dimethylbutanamide] came in with a Ki of 5.42 nM.

Take `C[C@H](N)C(=O)N1CCN(CCCOc2ccc(C(=O)C3CC3)cc2)CC1` [Example 1, (4-(3-(4-((2S)-2-aminopropanoyl)-1-piperazinyl)propoxy)phenyl)(cyclopropyl)methanone]: affinity was put at a Ki of 19.6 nM.

`C[C@@H](NC(=O)c1ccc(N(C)C)cc1)C(=O)N1CCN(CCCOc2ccc(-c3noc(CC4CCCC4)n3)c(F)c2)CC1` [Example 180, N-{(1R)-2-[4-(3-{4-[5-(cyclopentylmethyl)-1,2,4-oxadiazol-3-yl]-3-fluorophenoxy}propyl)-1-piperazinyl]-1-methyl-2-oxoethyl}-4-(dimethylamino)benzamide] yielded an inhibition constant Ki of 2.37 nM.

`Cn1cnc(C[C@@H](N)C(=O)N2CCN(CCCOc3ccc(C(=O)C4CC4)cc3)CC2)c1` [Example 88, (4-(3-(4-((2R)-2-amino-3-(1-methyl-1H-imidazol-4-yl)propanoyl)-1-piperazinyl)propoxy)phenyl)(cyclopropyl)methanone] registered a Ki of 6.56 nM.

On to `C[C@@H](NC(=O)c1ccc(Br)cc1)C(=O)N1CCN(CCCOc2ccc(C(=O)C3CC3)cc2)CC1` [Example 194, 4-bromo-N-[(1R)-2-(4-{3-[4-(cyclopropylcarbonyl)phenoxy]propyl}-1-piperazinyl)-1-methyl-2-oxoethyl]benzamide], for which the Ki came out at 1.18 nM.

A word on the Ki: it is a dissociation constant, usually derived from enzyme kinetics or from competition with a known ligand. A high value points to lower affinity.
